Results from the NIST ThermoML archive (doi:10.1021/je300886k).
± gives the expanded uncertainty stated by the source.

Legend:
[1] = Liquid; for mass density: 298.15 K, 101.33 kPa, Vibrating tube method; for vapor or sublimation pressure: Ebulliometric method (Recirculating still)
[2] = refractive index (Na D-line) (dimensionless); settings: 298.15 K; 101.33 kPa; Liquid; Standard Abbe refractometry
[3] = mn = molality of the nth substance listed, in mol/kg; settings: 298.15 K, 101 kPa, Liquid, Vibrating tube method

CCO [ethanol]
Settings | mass density [kg/m3] | refractive index
[1] | 785.22 ± 0.22 | –
[2] | – | 1.3599 ± 0.0004

Settings | vapor or sublimation pressure [kPa]
[1], 352.75 K | 101 ± 1

CCOC(C)=O [ethyl acetate]
Settings | mass density [kg/m3] | refractive index
[1] | 897.72 ± 0.1 | –
[2] | – | 1.3698 ± 0.0004

Settings | vapor or sublimation pressure [kPa]
[1], 350.45 K | 101 ± 1

[Cl-].[Cl-].[Mg+2] [magnesium chloride] + CCO
[3]
Settings | mass density [kg/m3]
m1 = 0.0105 | 782.98 ± 0.13
m1 = 0.0211 | 783.73 ± 0.13
m1 = 0.0317 | 784.5 ± 0.13
m1 = 0.0423 | 785.26 ± 0.13
m1 = 0.053 | 786.01 ± 0.13
m1 = 0.0583 | 786.38 ± 0.13
m1 = 0.0636 | 786.75 ± 0.13
m1 = 0.0689 | 787.12 ± 0.13
m1 = 0.0743 | 787.49 ± 0.13
m1 = 0.0796 | 787.86 ± 0.13
m1 = 0.085 | 788.23 ± 0.13
m1 = 0.0903 | 788.57 ± 0.13
m1 = 0.0957 | 788.93 ± 0.13

O=[N+]([O-])[O-].O=[N+]([O-])[O-].[Mg+2] [magnesium nitrate] + CCO
[3]
Settings | mass density [kg/m3]
m1 = 0.0067 | 782.9 ± 0.13
m1 = 0.0135 | 783.59 ± 0.13
m1 = 0.0203 | 784.17 ± 0.13
m1 = 0.0271 | 784.79 ± 0.13
m1 = 0.0339 | 785.43 ± 0.13
m1 = 0.0373 | 785.75 ± 0.13
m1 = 0.0407 | 786.06 ± 0.13
m1 = 0.0441 | 786.43 ± 0.13
m1 = 0.0475 | 786.74 ± 0.13
m1 = 0.051 | 787.05 ± 0.13
m1 = 0.0544 | 787.34 ± 0.13
m1 = 0.0578 | 787.64 ± 0.13
m1 = 0.0612 | 787.92 ± 0.13
m1 = 0.0647 | 788.22 ± 0.13
m1 = 0.0681 | 788.49 ± 0.13

O=[N+]([O-])[O-].O=[N+]([O-])[O-].[Zn+2] [nitric acid, zinc salt] + CCO
[3]
Settings | mass density [kg/m3]
m1 = 0.0053 | 785.9 ± 0.13
m1 = 0.0106 | 786.55 ± 0.13
m1 = 0.0159 | 787.2 ± 0.13
m1 = 0.0212 | 787.84 ± 0.13
m1 = 0.0265 | 788.49 ± 0.13
m1 = 0.0292 | 788.78 ± 0.13
m1 = 0.0319 | 789.09 ± 0.13
m1 = 0.0346 | 789.38 ± 0.13
m1 = 0.0372 | 789.7 ± 0.13
m1 = 0.0399 | 789.99 ± 0.13
m1 = 0.0426 | 790.29 ± 0.13
m1 = 0.0453 | 790.6 ± 0.13
m1 = 0.048 | 790.89 ± 0.13
m1 = 0.0507 | 791.19 ± 0.13
m1 = 0.0533 | 791.49 ± 0.13
m1 = 0.0804 | 794.55 ± 0.13
